Patent US6852741B2, “Compositions and methods for treatment of neurological disorders” (University of Florida, priority 2001, dated 2005)

Tests used:
[1] = target: T1, α3β4 nicotinic acetylcholine receptor (Rattus norvegicus, UniProt P04757+P12392); assay: Two-electrode voltage clamp of Xenopus oocytes expressing wild-type α3β4 receptors; type: cell-based; conditions: for Protection from residual inhibition produced by 100 μM DMXB: pre-treatment and co-application, 100 μM ACh control after 5 minute wash
T1 construct: expressed in transfected cells; host or cells: Xenopus laevis oocytes injected with subunit cRNAs
T1 sequence (P04757 26-499): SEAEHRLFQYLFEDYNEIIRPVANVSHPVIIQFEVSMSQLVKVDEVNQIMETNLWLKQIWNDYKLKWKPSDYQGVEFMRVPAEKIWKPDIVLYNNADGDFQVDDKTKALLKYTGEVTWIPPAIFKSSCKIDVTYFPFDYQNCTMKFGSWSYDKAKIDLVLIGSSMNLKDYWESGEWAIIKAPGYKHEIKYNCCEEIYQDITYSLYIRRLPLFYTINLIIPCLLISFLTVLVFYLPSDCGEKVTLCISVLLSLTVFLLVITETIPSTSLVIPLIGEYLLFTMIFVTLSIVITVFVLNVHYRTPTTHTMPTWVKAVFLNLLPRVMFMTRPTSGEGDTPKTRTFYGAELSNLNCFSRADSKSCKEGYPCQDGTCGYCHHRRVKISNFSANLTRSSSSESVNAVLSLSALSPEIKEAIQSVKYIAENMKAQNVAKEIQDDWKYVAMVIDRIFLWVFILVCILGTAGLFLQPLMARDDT
T1 sequence (P12392 21-495): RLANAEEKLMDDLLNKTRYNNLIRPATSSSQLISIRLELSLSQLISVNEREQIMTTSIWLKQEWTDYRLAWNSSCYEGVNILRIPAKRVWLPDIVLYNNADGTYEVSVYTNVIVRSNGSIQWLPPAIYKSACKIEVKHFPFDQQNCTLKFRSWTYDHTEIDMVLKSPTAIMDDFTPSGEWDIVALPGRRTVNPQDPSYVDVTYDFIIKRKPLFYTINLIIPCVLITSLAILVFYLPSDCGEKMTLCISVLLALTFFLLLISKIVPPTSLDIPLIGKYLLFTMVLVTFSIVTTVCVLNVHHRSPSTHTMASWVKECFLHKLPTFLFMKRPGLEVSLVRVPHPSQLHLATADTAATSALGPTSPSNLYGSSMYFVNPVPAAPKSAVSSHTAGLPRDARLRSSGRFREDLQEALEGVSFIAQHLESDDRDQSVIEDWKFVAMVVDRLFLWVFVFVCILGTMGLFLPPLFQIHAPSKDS
Procedure: (§1) Preparation of RNA. After linearization and purification of cloned cDNAs, RNA transcripts were prepared in vitro using the appropriate mMessage mMachine kit from AMBION Inc. (Austin, Tex.).
(§2) Expression in Xenopus oocytes. Mature (>9 cm) female Xenopus laevis African toads (NASCO, Ft. Atkinson, Wis.) were used as a source of oocytes. Prior to surgery, frogs were anesthetized by placing the animal in a 1.5 g/L solution of MS222 (3-aminobenzoic acid ethyl ester). Eggs were removed from an incision made in the abdomen. […] Subsequently, stage 5 oocytes were isolated and injected with 50 nl (5-20 ng) each of a mixture of the appropriate subunit cRNAs following harvest. Recordings were made 1 to 7 days after injection depending on the cRNAs being tested.
(§3) Electrophysiology. […] Data were acquired using Labview software (NATIONAL INSTRUMENTS) or pClamp8 (AXON INSTRUMENTS) and filtered at a rate of 6 Hz. […] A Mariotte flask filled with Ringer's solution was used to maintain a constant hydrostatic pressure for drug deliveries and washes. Drugs were diluted in perfusion solution and loaded into a 2 ml loop at the terminus of the perfusion line. A bypass of the drug-loading loop allowed bath solution to flow continuously while the drug loop was loaded, and then drug application was synchronized with data acquisition by using a 2-way electronic valve. The rate of bath solution exchange and all drug applications was 6 ml/min. Current electrodes were filled with a solution containing 250 mM CsCl, 250 mM CsF and 100 mM EGTA and had resistances of 0.5-2 MΩ. Voltage electrodes were filled with 3 M KCl and had resistances of 1-3 MΩ.
(§4) Experimental protocols and data analysis. Current responses to drug application were studied under two-electrode voltage clamp at a holding potential of −50 mV unless otherwise noted. Holding currents immediately prior to agonist application were subtracted from measurements of the peak response to agonist.
(§5) The ratio of C2/C1 is referred to as the recovery response (FIGS. 2B, 3B and 3D). Measurements of C2/C1 that were <0.75 were taken to indicate that the experimental drug application produced some form of residual inhibition. An oocyte was not used for further experimental drug applications when the measurements of C2/C 1 became less than 0.75.
(§6) Means and standard errors (SEM) were calculated from the normalized responses of at least four oocytes for each experimental concentration. For concentration-response relations (FIGS. 2 & 3), data were plotted using Kaleidagraph 3.0.2 (ABELBECK SOFTWARE; Reading, Pa.), and curves were generated from the Hill equation. [formula]
(§7) In Formula I, Imax denotes the maximal response for a particular agonist/subunit combination, and n represents the Hill coefficient. Imax, n, and the EC50 were all unconstrained for the fitting procedures.
The values for the C2/C1 ratios were plotted as functions of the experimental agonist concentrations applied between the C2 and C1 control responses. The data were then fit to the Hill equation with n constrained to equal −1 for the calculation of IC50 values. Determination of significant differences between experimental and control groups (FIGS. 4A-4B and 5A-5D) was made by t-test (unpaired two-tailed).

[2] = target: T2, α3β4(6′F10′T) nicotinic acetylcholine receptor (Rattus norvegicus, UniProt P04757+P12392, A272T/S268F); assay: Two-electrode voltage clamp of Xenopus oocytes expressing mutant α3β4(6′F10′T) receptors; type: cell-based; conditions: for Effect of hyperpolarized holding potential on residual inhibition: −100 mV versus −50 mV; for Residual inhibition of mutant compared with wild-type receptor: after 5 minute wash
T2 construct: expressed in transfected cells; host or cells: Xenopus laevis oocytes injected with subunit cRNAs; mutant made by QuikChange site-directed mutagenesis
T2 sequence (P04757 26-499): as the sequence (P04757 26-499) above
T2 sequence (P12392 21-495 S268F/A272T): as the sequence (P12392 21-495) above, with S248F, A252T counted along it
Procedure: cDNA clones. […] The sequences of the TM2 domains of the relevant subunits are shown below.
Construction of site-directed mutants. Site-directed mutagenesis was conducted with […] kits ([…], LaJolla, Calif.). In brief, two complimentary oligonucleotides were synthesized which contain the desired mutation flanked by 10-15 bases of unmodified nucleotide sequence. Using a thermal cycler, Pfu DNA polymerase extended the sequence around the whole vector, generating a plasmid with staggered nicks. […] After 12-16 cycles, the product was treated with Dpn I, which digested the methylated parent DNA into numerous small pieces. The product was then transformed into E. coli cells, which repaired the nicks. Mutations were confirmed by DNA sequencing.
as §1, §2, §3, §4, §5, §6, §7
The values for the C2/C1 ratios were plotted as functions of the experimental agonist concentrations applied between the C2 and C1 control responses. The data were then fit to the Hill equation with n constrained to equal −1 for the calculation of IC50 values.

[3] = Hill fit of peak currents, holding potential −50 mV

**Q.** Which “n (Hill coefficient)” value ([1]; Hill fit of peak currents) does the source give for `CN1CCCC1c1cccnc1` (single isomer, unassigned; (-)) [Nicotine, (−)-Nicotine] here?
**A.** 1.2 ± 0.2

**Q.** What about the “n (Hill coefficient)” value ([2]; Hill fit of peak currents) of the same molecule?
**A.** 0.8 ± 0.3

**Q.** What about the “Persistence of residual inhibition” value ([2]; repeated applications, data not shown) of the same molecule?
**A.** up to an hour

**Q.** And the “Effect of hyperpolarized holding potential on residual inhibition” value (from here on “Effect … on residual inhibition”) [2]?
**A.** enhanced

**Q.** With `COc1ccc(/C=C2\CCCN=C2c2cccnc2)c(OC)c1` [DMXB, 3-[2,4-dimethoxybenzylidene]-anabaseine] as the molecule, how does the IC50 [1] read?
**A.** 121 ± 48 µM

**Q.** And the “Activation on co-application with 100 μM ACh, relative to ACh alone” value ([1]; 100 μM DMXB co-applied with 100 μM ACh)?
**A.** 4±0.2%

**Q.** And the “Effect of ACh co-application on DMXB-induced inhibition” value ([1]; DMXB co-applied with 100 μM ACh)?
**A.** not enhanced

**Q.** And the “Effect … on residual inhibition” value ([1]; −100 mV versus −50 mV)?
**A.** enhanced

**Q.** And the IC50 [2]?
**A.** 23 ± 17 µM

**Q.** What about the “Response to 100 μM ACh when co-applied with DMXB” value ([2]; 30 μM DMXB co-applied with 100 μM ACh) of the same molecule?
**A.** 13±2%

**Q.** And the “Effect of ACh co-application on DMXB-induced residual inhibition” value ([2]; 30 μM DMXB co-applied with ACh)?
**A.** large increase in the residual inhibition

**Q.** What about the “Residual inhibition of mutant compared with wild-type receptor” value [2] of the same molecule?
**A.** more inhibition after it was applied at 100 or 300 μM

**Q.** And the “Effect … on residual inhibition” value [2]?
**A.** enhanced

**Q.** With `CC[N+](CC)(CC)CC(=O)Nc1c(C)cccc1C` [QX-314, 2-(triethylamino)-N-(2,6-dimethylphenyl)-acetamide] as the molecule, how does the “Protection from residual inhibition produced by 100 μM DMXB” value [1] read?
**A.** neither of these agents provided any protection

**Q.** For `CNCC/C=C/c1cccnc1` [TC-2403, (E)-N-methyl-4-(3-pyridinyl)-3-butene-1-amine], which “n (Hill coefficient)” value ([1]; Hill fit of peak currents) is on record?
**A.** 2.1 ± 0.2

**Q.** What about the “Max response (relative to ACh Maximum)” value [1, 3] of the same molecule?
**A.** 0.09 ± 0.01

**Q.** What about the EC50 ([1]; activation of peak currents) of the same molecule?
**A.** 347 ± 12 µM

**Q.** What about the “Protection from residual inhibition produced by 100 μM DMXB” value [1] of the same molecule?
**A.** significant (p<0.05) reduction in the residual inhibition

**Q.** What about the “n (Hill coefficient)” value ([2]; Hill fit of peak currents) of the same molecule?
**A.** 2.1 ± 0.2

**Q.** And the “Max response (relative to ACh Maximum)” value [2, 3]?
**A.** 0.38 ± 0.01

**Q.** And the EC50 ([2]; activation of peak currents)?
**A.** 111 ± 5 µM

**Q.** And the “Control ACh response after application, relative to pre-application control values” ([2]; after 1 mM TC-2403, 5 minute wash)?
**A.** 70±6%

**Q.** And the “Residual inhibition of mutant compared with wild-type receptor” value [2]?
**A.** no significant increase in residual inhibition at concentrations less than 1 mM

**Q.** And the “Protection from residual inhibition produced by 100 μM DMXB” value ([2]; pre-treatment and co-application, p<0.01 for TC-2403)?
**A.** significant protection

**Q.** And the “Protection from residual inhibition produced by 300 μM nicotine” value ([2]; pre-treatment and co-application, p<0.05 for TC-2403)?
**A.** significant protection

**Q.** How did the “Protection from residual inhibition produced by 100 μM DMXB” value [1] turn out when `CCCCNc1ccc(C(=O)OCCN(C)C)cc1` [tetracaine] was run?
**A.** neither of these agents provided any protection
